From the supplement of paper PMC8671470

Columns and labels:
Conditions in all cases: 72 h
MV4-11 [1] = system: MV4-11
Summary of the method: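 In 384-well plates holding acoustically pre-printed compounds at five tenfold doses from 1 to 10,000 nM, in duplicate, fifteen myeloid leukaemia cell lines were grown in RPMI 1640 for 72 h at 37 °C with 5% CO2. Luminescent ATP viability was scaled between vehicle and a positive control at 10 µM. The IC50 was then taken from log-logistic dose–response fits with four parameters.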

HL-60 [2] = assay: cell viability (% survival relative to DMSO control); higher = less cytotoxic
Summary of the method: (§1)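 In 384-well plates, the full library was rescreened in duplicate on HL-60 cells in RPMI 1640 with 10% FBS, at 1–10,000 nM in five tenfold concentrations, for 72 h at 37 °C, 5% CO2. Each run also held DMSO or 100 nM of one of three metabolic inhibitors. Viability was measured by CellTiter-Glo and normalised to DMSO wells and to wells with proteasome inhibitor, present at 10 μM. Any area under the curve comes from four-parameter log-logistic fitting with drc and PharmacoGx.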

BV-173 = assay: cell viability (% survival relative to DMSO control, bortezomib = 0%); higher = less cytotoxic
Summary of the method: (§2)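 Reported values are percent survival from duplicate wells, averaged. Fifteen myeloid leukaemia cell lines were treated in 384-well plates with compounds at 1, 10, 100, 1000 or 10000 nM for 72 h at 37 °C in 5% CO2. Signals from CellTiter-Glo luminescence were scaled with vehicle as 100% and a 10 µM positive control as 0%.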

HEL = assay: as above
Summary of the method: as §2

HL-60 [3] = assay: as above
Summary of the method: as §2

K-562 = assay: as above
Summary of the method: as §2

KCL-22 = assay: as above
Summary of the method: as §2

KG-1 = assay: as above
Summary of the method: as §2

KU-812 = assay: as above
Summary of the method: as §2

LAMA-84 = assay: as above
Summary of the method: as §2

ML-2 = assay: as above
Summary of the method: as §2

MOLM-13 = assay: as above
Summary of the method: as §2

MV4-11 [4] = assay: as above
Summary of the method: as §2

Mono-Mac-6 = assay: as above
Summary of the method: as §2

NOMO-1 = assay: as above
Summary of the method: as §2

SHI-1 = assay: as above
Summary of the method: as §2

THP-1 = assay: as above
Summary of the method: as §2

HL-60 [5] = assay: area under dose-response curve (viability, 1 nM-10 uM) (fraction (0-1)); higher = more sensitive
Summary of the method: as §1

N=C(N)c1ccc(N=NNc2ccc(C(=N)N)cc2)cc1 [Diminazene]
Conditions	IC50 (cell viability) [µM]
MV4-11 [1]	> 10

cell viability [%], HL-60 [2]
Conditions	0.001 µM	0.01 µM	0.1 µM	1 µM	10 µM
co-treatment: AZD3965 100 nM	94.9	98.5	106	93.1	101
co-treatment: DMSO vehicle	101.5	100.7	99.712	101.22	100.7
co-treatment: GSK2194069 100 nM	99.7	100	105	100.3	101.5
co-treatment: pictilisib 100 nM	83.5	98	107.8	97.2	104

Conditions	area under dose-response curve, co-treatment: AZD3965 100 nM	area under dose-response curve, co-treatment: DMSO vehicle	area under dose-response curve, co-treatment: GSK2194069 100 nM	area under dose-response curve, co-treatment: pictilisib 100 nM	cell viability, 1 nM [%]	cell viability, 10 nM [%]	cell viability, 100 nM [%]	cell viability, 1000 nM [%]	cell viability, 10000 nM [%]
BV-173	–	–	–	–	104	103	106	106	103
HEL	–	–	–	–	103	109	111	93.8	111
HL-60 [3]	–	–	–	–	83	102	123	116	96.6
HL-60 [5]	< 0.0301	< 0.0301	< 0.0301	< 0.0301	–	–	–	–	–
K-562	–	–	–	–	102	99.3	119	94.5	96.7
KCL-22	–	–	–	–	102	96.6	114	84.4	72.7
KG-1	–	–	–	–	115	109	114	97.7	88.9
KU-812	–	–	–	–	89.2	100	95.5	101	85.7
LAMA-84	–	–	–	–	105	103	108	105	98.3
ML-2	–	–	–	–	104	98.7	100	106	93.7
MOLM-13	–	–	–	–	94.4	98.1	101	73.7	93.9
MV4-11 [4]	–	–	–	–	113	100	94.6	92.2	77.9
Mono-Mac-6	–	–	–	–	97	100	107	105	98.2
NOMO-1	–	–	–	–	106	99	104	102	86.9
SHI-1	–	–	–	–	100	102	116	95.3	95.8
THP-1	–	–	–	–	105	99.7	107	103	86.3
